As a reminder, the melting point is the temperature of the solid-liquid transition. As a reminder, the IC50 is the concentration that gives 50% inhibition. The low end stands for inhibition by little substance, the high end for a need for much substance.

Melting point and IC50 data for nine molecules are collected here from patent US6903101B1, “Substituted pyridazines and fused pyridazines with angiogenesis inhibiting activity” (Bayer Pharmaceuticals Corporation, priority 2000, dated 2005).

Structures can show the parent of a compound that is named as a salt. A value given as a limit tells only on which side of the number the result lay.

For one data set, the target named is T1, KDR kinase domain (Homo sapiens, UniProt P35968).
T1 construct: The cytosolic kinase domain of KDR kinase was expressed as a 6 His fusion protein in Sf9 insect cells; 6 His; made in house; host or cells: Sf9 insect cells
T1 sequence (P35968 834-1162 limits assumed): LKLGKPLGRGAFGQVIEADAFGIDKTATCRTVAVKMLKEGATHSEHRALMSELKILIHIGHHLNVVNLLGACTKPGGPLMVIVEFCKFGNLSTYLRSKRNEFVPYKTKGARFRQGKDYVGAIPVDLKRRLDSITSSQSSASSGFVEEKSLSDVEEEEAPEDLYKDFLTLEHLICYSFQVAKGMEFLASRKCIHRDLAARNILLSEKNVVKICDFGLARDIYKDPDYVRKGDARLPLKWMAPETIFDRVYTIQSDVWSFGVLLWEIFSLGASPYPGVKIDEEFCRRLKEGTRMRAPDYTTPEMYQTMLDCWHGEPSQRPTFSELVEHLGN
The experiment in a line: KDR Assay (kinase ELISA, poly(Glu4;Tyr1) phosphorylation). Type of data set: biochemical. The conditions noted are these: 3.3 μM ATP, 60 minutes room temperature. The procedure:
The cytosolic kinase domain of KDR kinase was expressed as a 6 His fusion protein in Sf9 insect cells. The KDR kinase domain fusion protein was purified over a Ni++chelating column. Ninety-six well ELISA plates were coated with 5 μg poly(Glu4;Tyr1) (Sigma Chemical Co., St Louis, Mo.) in 100 μl HEPES buffer (20 mM HEPES, pH 7.5, 150 mM NaCl, 0.02% Thimerosal) at 4° overnight. Before use, the plate was washed with HEPES, NaCl buffer and the plates were blocked with 1% BSA, 0.1% Tween 20 in HEPES, NaCl buffer.
Test compounds were serially diluted in 100% DMSO from 4 mM to 0.12 μM in half-log dilutions. These dilutions were further diluted twenty fold in H2O to obtain compound solutions in 5% DMSO. […]
The assay was incubated with test compound or vehicle alone with gentle agitation at room temperature for 60 minutes. […] PY/anti-PY complexes were detected with an anti-mouse IgG/HRP conjugate (Amershamn International plc, Buckinghamshire, England). Phosphotyrosine was quantitated by incubating with 100 μl 3, 3′, 5, 5′ tetramethylbenzidine solution (Kirkegaard and Perry, TMB Microwell 1 Component peroxidase substrate). […]
Optical densities were determined spectrophotometrically at 450 nm in a 96-well plate reader, SpectraMax 250 (Molecular Devices). Background (no ATP in assay) OD values were subtracted from all ODs and the percent inhibition was calculated according to the equation: [formula] […]
On the technique in general: In an ELISA, binding on a coated surface is turned into a signal by an enzyme label.

Data set [1] concerns the target T2, full length KDR receptor in NIH3T3 cells (Homo sapiens, UniProt P35968).
T2 construct: NIH3T3 cells expressing the full length KDR receptor were grown in DMEM; expressed in transfected cells; host or cells: NIH3T3 cells (G418 selection)
The experiment in a line: Cell mechanistic assay - Inhibition of 3T3 KDR phosphorylation. It counts as cell-based. The conditions noted are these: NIH3T3 cells expressing KDR, VEGF (30 ng/ml) stimulation, receptor phosphotyrosine ELISA. The procedure:
Cell mechanistic assay-Inhibition of 3T3 KDR phosphorylation:
NIH3T3 cells expressing the full length KDR receptor were grown in DMEM (Life Technologies, Inc., Grand Island, N.Y.) supplemented with 10% newborn calf serum, low glucose, 25 mM/L sodium pyruvate, pyridoxine hydrochloride and 0.2 mg/ml of G418 (Life Technologies Inc., Grand Island, N.Y.). The cells were maintained in collagen I-coated T75 flasks (Becton Dickinson Labware, Bedford, Mass.) in a humidified 5% CO2 atmosphere at 37° C.
Fifteen thousand cells were plated into each well of a collagen I-coated 96-well plate in the DMEM growth medium. Six hours later, the cells were washed and the medium was replaced with DMEM without serum. […]
To assess receptor phosphorylation, 100 microliters of each cell lysate was added to the wells of an ELISA plate precoated with 300 ng of antibody C20 (Santa Cruz Biotechnology, Inc., Santa Cruz, Calif.). […] Wells were washed and phosphotyrosine was quantitated by addtion of 100 μl per well of 3,3′,5,5′ tetramethylbenzidine (Kirkegaard and Perry, TMB Microwell 1 Component peroxidase substrate) solution. […]
Optical densities (OD) were determined spectrophotometrically at 450 nm in a 96-well plate reader (SpectraMax 250, Molecular Devices). Background (no VEGF added) OD values were subtracted from all ODs and percent inhibition was calculated according to the equation: [formula] […]

T2 sequence (P35968 20-1356): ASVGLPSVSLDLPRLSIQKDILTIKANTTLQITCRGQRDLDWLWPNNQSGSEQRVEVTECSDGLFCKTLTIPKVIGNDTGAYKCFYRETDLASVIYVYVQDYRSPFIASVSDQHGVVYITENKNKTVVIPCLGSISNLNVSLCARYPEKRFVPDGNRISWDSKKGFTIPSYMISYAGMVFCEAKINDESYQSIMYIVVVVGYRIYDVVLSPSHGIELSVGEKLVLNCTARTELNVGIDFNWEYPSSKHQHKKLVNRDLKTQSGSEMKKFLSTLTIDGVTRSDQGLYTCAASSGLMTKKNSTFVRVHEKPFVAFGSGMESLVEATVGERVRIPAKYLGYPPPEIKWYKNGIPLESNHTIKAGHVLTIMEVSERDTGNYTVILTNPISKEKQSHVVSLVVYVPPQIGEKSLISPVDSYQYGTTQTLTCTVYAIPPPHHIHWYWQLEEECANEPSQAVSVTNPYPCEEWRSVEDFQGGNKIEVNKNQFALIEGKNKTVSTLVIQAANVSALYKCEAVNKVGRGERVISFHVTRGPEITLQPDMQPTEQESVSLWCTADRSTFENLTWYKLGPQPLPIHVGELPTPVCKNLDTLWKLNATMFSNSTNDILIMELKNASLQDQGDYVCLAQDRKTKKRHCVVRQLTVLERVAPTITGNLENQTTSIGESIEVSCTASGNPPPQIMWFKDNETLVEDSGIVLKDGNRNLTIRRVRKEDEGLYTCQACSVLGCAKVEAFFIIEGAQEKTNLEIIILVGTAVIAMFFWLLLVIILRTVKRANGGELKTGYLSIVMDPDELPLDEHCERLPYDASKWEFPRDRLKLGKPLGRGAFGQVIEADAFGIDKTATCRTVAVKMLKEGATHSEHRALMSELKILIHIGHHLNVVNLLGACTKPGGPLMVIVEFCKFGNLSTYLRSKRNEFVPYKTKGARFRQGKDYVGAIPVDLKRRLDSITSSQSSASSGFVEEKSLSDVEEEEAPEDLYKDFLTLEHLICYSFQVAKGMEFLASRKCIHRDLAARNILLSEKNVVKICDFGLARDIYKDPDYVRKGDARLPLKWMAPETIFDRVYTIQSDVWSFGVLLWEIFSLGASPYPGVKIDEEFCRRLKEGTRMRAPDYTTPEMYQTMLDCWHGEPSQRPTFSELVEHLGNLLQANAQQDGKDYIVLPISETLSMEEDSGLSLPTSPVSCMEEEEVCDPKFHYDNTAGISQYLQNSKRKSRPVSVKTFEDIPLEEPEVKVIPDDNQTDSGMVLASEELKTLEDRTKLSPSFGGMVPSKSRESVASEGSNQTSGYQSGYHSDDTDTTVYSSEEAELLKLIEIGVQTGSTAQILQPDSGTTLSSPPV

Consider `CNC(=O)c1cc(Cc2nnc(Nc3ccc(Cl)cc3)c3ccccc23)ccn1` (as salt: hydrochloride) [Example 11, 4-[4-(4-Chlorophenylamino)phthalazin-1-ylmethyl]pyridin-2-yl carboxylic acid methylamide dihydrochloride], for which the melting point was 255 °C (dec.).

The molecule `NC(=O)c1cc(COc2nnc(Nc3ccc(Cl)cc3)c3ccccc23)ccn1` (as salt: hydrochloride) [Example 15, 4-[4-(4-Chlorophenylamino)phthalazin-1-yloxymethyl]pyridin-2-yl carboxylic acid amide dihydrochloride] showed a melting point of 143 to 145.2 °C.

In turn, `CNC(=O)c1cc(Cc2nnc(Nc3ccc(Cl)cc3)c3ccccc23)ccn1` (as salt: methanesulfonate) [Example 12, 4-[4-(4-Chlorophenylamino)phthalazin-1-ylmethyl]pyridin-2-yl carboxylic acid methylamide dimethanesulfonate] yielded a melting point of 245 to 249 °C.

As to `NC(=O)c1cc(Cc2nnc(Nc3ccc(Cl)cc3)c3ccccc23)ccn1` (as salt: methanesulfonate) [Example 14, 4-[4-(4-Chlorophenylamino)phthalazin-1-ylmethyl]pyridin-2-yl carboxylic acid amide dimethanesulfonate], the melting point lay in the range of 156 to 161 °C.

On to `NC(=O)c1cc(COc2nnc(Nc3ccc(Cl)cc3)c3ccccc23)ccn1` (as salt: methanesulfonate) [Example 16, 4-[4-(4-Chlorophenylamino)phthalazin-1-yloxymethyl]pyridin-2-yl carboxylic acid amide dimethanesulfonate], for which the melting point fell in the range of 75 to 80 °C.

Take `Cl.Cl.NC(=O)c1cc(Cc2nnc(Nc3ccc(Cl)cc3)c3ccccc23)ccn1` [Example 13, 4-[4-(4-Chlorophenylamino)phthalazin-1-ylmethyl]pyridin-2-yl carboxylic acid amide dihydrochloride]: the melting point lay in the range of 180 to 198 °C.

In the case of `Clc1ccc(Nc2ccc(OCc3ccncc3)nn2)cc1` [Example 21], the IC50 is > 1000 nM at KDR kinase domain and > 50 nM in data set [1].

Consider `N#CC(c1ccncc1)c1nnc(Nc2ccc3c(c2)CCC3)c2ccccc12` (stereo not shown) [Example 22, 1-(indan-5-ylamino)-4-(4-pyridylcyanomethyl)phthalazine], for which the melting point is 122 to 123 °C.

As for `c1ccc2c(Nc3ccc4ncsc4c3)nnc(Cc3ccncc3)c2c1` [Example 23], the melting point lay within 163 to 164 °C.
